In general, EC50 refers to the midpoint of the concentration-response curve. Low readings indicate an effect from little substance, high ones a need for much substance. A word on the solubility (kinetic): it is solubility judged after dilution from a stock solution rather than from solid.

Each structure is given as a SMILES string.

Two compounds from paper PMC11583123, “Linker Chemistry and Connectivity Fine-Tune the Immune Response and Kinetic Solubility of Conjugated NOD2/TLR7 Agonists” (Bioconjugate Chemistry, 2024) can be followed below.

Data set [1] concerns the target T1, human TLR7 (Homo sapiens, UniProt Q9NYK1).
T1 construct: host or cells: HEK-Blue TLR7 (HEK293-derived)
T1 sequence (Q9NYK1 27-1049): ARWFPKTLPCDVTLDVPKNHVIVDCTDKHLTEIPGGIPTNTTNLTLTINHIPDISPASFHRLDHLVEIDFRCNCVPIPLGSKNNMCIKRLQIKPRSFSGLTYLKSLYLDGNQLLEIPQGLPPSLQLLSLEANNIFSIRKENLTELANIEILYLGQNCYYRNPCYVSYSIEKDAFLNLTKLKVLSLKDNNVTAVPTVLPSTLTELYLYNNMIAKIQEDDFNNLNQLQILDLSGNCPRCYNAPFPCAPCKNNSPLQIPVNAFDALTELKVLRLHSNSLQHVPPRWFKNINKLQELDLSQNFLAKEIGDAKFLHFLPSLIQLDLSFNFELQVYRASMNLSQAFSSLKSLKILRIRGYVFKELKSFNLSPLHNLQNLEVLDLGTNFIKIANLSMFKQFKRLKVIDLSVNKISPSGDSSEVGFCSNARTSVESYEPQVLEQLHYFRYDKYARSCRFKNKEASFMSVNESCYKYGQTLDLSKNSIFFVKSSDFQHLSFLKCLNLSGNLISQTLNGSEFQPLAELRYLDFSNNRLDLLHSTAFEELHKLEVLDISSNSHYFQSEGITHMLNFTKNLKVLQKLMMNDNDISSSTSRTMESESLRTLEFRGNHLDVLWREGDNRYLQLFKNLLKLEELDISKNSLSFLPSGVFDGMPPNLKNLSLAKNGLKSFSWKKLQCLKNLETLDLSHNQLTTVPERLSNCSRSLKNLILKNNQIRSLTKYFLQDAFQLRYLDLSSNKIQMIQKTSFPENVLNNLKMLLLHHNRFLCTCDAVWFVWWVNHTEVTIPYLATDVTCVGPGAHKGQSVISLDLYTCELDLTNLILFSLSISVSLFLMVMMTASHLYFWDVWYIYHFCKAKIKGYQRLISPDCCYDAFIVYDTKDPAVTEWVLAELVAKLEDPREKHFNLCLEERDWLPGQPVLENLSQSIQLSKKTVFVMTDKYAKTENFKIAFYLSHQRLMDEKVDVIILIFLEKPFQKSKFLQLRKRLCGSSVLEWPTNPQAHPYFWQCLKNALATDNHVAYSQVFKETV
Description: HEK-Blue TLR7 NF-κB SEAP reporter assay. The following applies: HEK-Blue TLR7 cells. It is filed as cell-based. The text has this:
The building blocks and synthesized conjugates were initially assessed for their receptor-specific activities toward NOD2, TLR7 and TLR8 using the commercially available HEK-Blue NOD2, TLR7 and TLR8 reporter cell lines. These cell lines were derived from HEK293 cells by cotransfection of human NOD2/TLR7/TLR8 and an NF-κB-inducible secreted embryonic alkaline phosphatase (SEAP). Activation of NOD2/TLR7/TLR8, and subsequently of NF-κB, leads to the expression and secretion of SEAP, the levels of which can be quantified colorimetrically. […]
3.1. Hek-Blue NOD2, TLR7 and TLR8 cells.
HEK-Blue NOD2, TLR7, and TLR8 cells (Invivogen, San Diego, CA, USA) were cultured according to the manufacturer instructions in Dulbecco’s modified Eagle’s medium (Sigma-Aldrich, St. Louis, MO, USA) supplemented with 10% heat-inactivated fetal bovine serum (Gibco), 2 mM L-glutamine (Sigma-Aldrich), 100 U/mL penicillin (Sigma-Aldrich), 100 µg/mL streptomycin (Sigma-Aldrich), and 100 µg/mL Normocin (Invivogen) for two passages. All subsequent passages of NOD2 and TLR8 cells were cultured in medium additionally supplemented with 100 µg/mL Zeocin and 30 µg/mL Blasticidin (Invivogen) and of TLR7 cells with 100 µg/mL Zeocin and 10 µg/mL Blasticidin. […]
The tested compounds were dissolved in DMSO and further diluted in culture medium to the desired final concentrations, such that the final DMSO concentration never exceeded 0.1%. […]
3.4 NOD2/TLR7/TLR8 NF-kB reporter assay
HEK-Blue NOD2 cells (25,000 cells/well), TLR7 and TLR8 cells (40,000 cells/well) were seeded in 96-well plates in 100 µL HEK-Blue detection medium (Invivogen, San Diego, CA, USA) and treated with […]
corresponding vehicle (0.1% DMSO). After 18 h of incubation (37 °C, 5% CO2), secreted embryonic
In general terms: Reporter assays use an easily measured gene product as a stand-in for the process of interest.

A short description of data set [2]: Kinetic solubility in PBS (UHPLC, method of Hoelke et al.). It is filed as physicochemical. The following applies: PBS, 5% DMSO. The protocol: Second, the kinetic solubility of all individual building blocks (compounds 4-7) and conjugates was determined (results are listed in Table 1) in order to highlight how fine-tuning of linker traits can impact this physicochemical property. Kinetic solubility refers to the maximum solubility of a compound when it precipitates from a supersaturated solution, which is metastable and not in equilibrium; it was measured using the method described by Hoelke et al.[34] The length and composition of the linker as well as linkage site are important for activity and physicochemical characteristics of conjugates, which in turn affect their pharmacokinetic profiles. In general, the benzylic COOH was exploited exclusively as the linker attachment site in TLR7 agonist-featuring conjugates, while two potential linkage sites were considered in the structure of NOD2 agonist. […] In conjugates 22-24 and 29, the moieties were connected via the γ-COOH group of the NOD2 agonist. […] It has to be kept in mind that among the polyalkylethers, the structural requirements for aqueous solubility are poised toward the (−OCH2CH2−)n unit while (−OCH2CH2CH2−)n is not beneficial in this respect.[35] […]
suspension was filtered through a syringe filter (0.45 μm), diluted 2.25-fold with acetonitrile, and analyzed with UHPLC. The solubility was quantified with a five-point calibration curve from 500 to 0.8 μM generated by dilution of the original DMSO solution into a 1:1 mixture of acetonitrile and PBS. The content of DMSO in all solutions was fixed to 5% by adding the respective amounts of DMSO. The column used was Waters Acquity UPLC BEH C18 (1.7 μm, 2.1 × 50 mm). The eluent was a mixture of 0.1% TFA in water (A) and acetonitrile (B), with a gradient of (%B): 0−6 min, 5−95%; 6−8 min, 95%; 8−8.5 min, 95−5%. The column was thermostated at 40 °C.
3.1. Hek-Blue NOD2, TLR7 and TLR8 cells. […]
(BioTek Synergy microplate reader; Winooski, VT, USA). EC50 values were calculated using Prism

Where [3] appears, read: 18 h, eight concentrations (1 nM to 10 μM), mean ± SEM.
The mark [4] stands for this setting: aqueous with cosolvent or surfactant or cyclodextrin, kinetic from dmso stock.

As for `CCOCc1nc2c(NC(=O)CCCCCNC(=O)CC[C@@H](NC(=O)[C@@H](NC(=O)CNC(=O)/C=C/c3ccc(O)c(OC)c3)C(C)C)C(=O)OCC)nc3ccccc3c2n1CC(C)(C)O` [compound 32], in data set [1] (setting [3]), the half-maximal effective concentration (EC50) is > 10 µM. In data set [1] (up to 10 μM), the “TLR7 agonistic activity (in words)” value is given as “devoid of TLR7 agonistic activity”. In addition, the solubility (kinetic) in data set [2] worked out at 437.3 µM; in data set [2] (setting [4]) it was 437 µM.

Consider `CCOCc1nc2c(N)nc3ccccc3c2n1CC(C)(C)NC(=O)CCCCCNC(=O)CC[C@@H](NC(=O)[C@@H](NC(=O)CNC(=O)/C=C/c1ccc(O)c(OC)c1)C(C)C)C(=O)OCC` [compound 33], for which the EC50 in data set [1] worked out at 5.3 µM; in data set [1] (setting [3]), 5.29 ± 1.5 µM. Moreover, the values for the solubility (kinetic) in data set [2] and in data set [2] (setting [4]) were 404.1 µM and 404 µM, respectively.
